Source: article PMC2708596 (Toxicological Sciences, 2009)
Like-named read-outs stand apart in the source and are kept apart here.

Experiments:
[1] = Phase I metabolism of estragole by human liver microsomes; type: in vitro ADME
[2] = Male rat, Lung, ref Punt et al. (2008), cited from earlier work
[3] = Male rat, Kidney, ref Punt et al. (2008), cited from earlier work
[4] = Male rat, Liver; estragole metabolites; ref Punt et al. (2008); cited from earlier work
[5] = PBBK model for estragole in human; conditions: 0.001 mg/kg bw, after 8 h, compared with Sangster et al., 1987
[6] = humans, ref Sangster et al., 1987, cited from earlier work
[7] = rats, 0.05 mg/kg bw; ref Anthony et al., 1987; cited from earlier work

Row | SMILES | Scaled Vmax (app) ([1]; Human, Liver, estragole metabolites, microsomal protein yield 32 mg/g) | Catalytic efficiency ([1]; Human, Liver, estragole metabolites, scaled Vmax (app)/Km(app)) | In vitro catalytic efficiency ([1]; Vmax (app)/Km(app) × 1000 μl/ml) | Scaled Vmax (app) ([2]; microsomal protein yield 20 mg/g) | Catalytic efficiency [2] | Km ([2]; read-out: Km (app)) | Scaled Vmax (app) ([3]; microsomal protein yield 7 mg/g) | Catalytic efficiency [3] | Km ([3]; read-out: Km (app)) | Catalytic efficiency [4] | Scaled Vmax (app) [4] | predicted formation compared with the reported in vivo level [5] | dose excreted as 14CO2 (level of O-demethylation) ([6]; 0.001 mg/kg bw, after 8 h) | radioactivity excreted in the urine ([6]; 0.001 mg/kg bw, after 8 h) | radioactivity excreted in the urine ([6]; 0.001 mg/kg bw, after 24 h) | radioactivity excreted in the urine ([6]; 0.001 mg/kg bw, after 48 h) | radioactivity not recovered ([6]; within 48 h) | oral dose accounted for by O-demethylation [7]
1 | C=CCc1ccc(O)cc1 [4-allylphenol] | 0.7 μmol h^−1 (g tissue)^−1 | 2 ml h^−1 (g liver)^−1 | 1.3 μl min^−1 (mg microsomal protein)^−1 | 0.8 μmol h^−1 (g tissue)^−1 | 1600 ml h^−1 (g liver)^−1 | 0.5 µM | 0.2 μmol h^−1 (g tissue)^−1 | 400 ml h^−1 (g liver)^−1 | 0.5 µM | 3 ml h^−1 (g liver)^−1 | 1.6 μmol h^−1 (g tissue)^−1 | fourfold lower |  |  |  |  |  | 
2 | C=CCc1ccc(OC)cc1 [estragole, 4-allylanisol] |  |  |  |  |  |  |  |  |  |  |  |  | ~10 % of the dose | 31–37 % of the dose | 47–53 % of the dose | 54–62 % of the dose | ~30% | 53 % of the oral dose
